Measured values taken from PMC12323131, “CSRP2 promotes the glioblastoma mesenchymal phenotype via p130Cas-mediated NF-κB and MAPK pathways” (Journal of Experimental & Clinical Cancer Research : CR, 2025).

Biological target: T1, CSRP2 recombinant protein (Homo sapiens, UniProt Q16527)
T1 construct: labelled with RED-NHS dye
T1 sequence (Q16527 1-193): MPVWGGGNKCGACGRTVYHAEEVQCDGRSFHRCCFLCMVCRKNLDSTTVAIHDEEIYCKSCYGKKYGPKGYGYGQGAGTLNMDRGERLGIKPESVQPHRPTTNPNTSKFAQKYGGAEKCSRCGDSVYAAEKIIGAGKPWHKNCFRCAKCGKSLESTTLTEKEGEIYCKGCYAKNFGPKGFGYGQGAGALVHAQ
Assay: microscale thermophoresis
Assay type: binding

Compound `O=C1c2c(O)ccc(O)c2C(=O)c2c(NCCNCCO)ccc(NCCNCCO)c21` [Mitoxantrone] has a Kd of 370 nM.
